According to ChEMBL document CHEMBL1909046, “DrugMatrix in vitro pharmacology data”:

Experiments:
Progesterone receptor = target: T1, Progesterone receptor (Bos taurus, UniProt Q690N0); experiment: DRUGMATRIX: Progesterone radioligand binding (ligand: [3H] R-5020); type: tissue-based, Uterus; conditions: Not Active = under 50% inhibition at 10 µM
T1 sequence (Q690N0 whole entry): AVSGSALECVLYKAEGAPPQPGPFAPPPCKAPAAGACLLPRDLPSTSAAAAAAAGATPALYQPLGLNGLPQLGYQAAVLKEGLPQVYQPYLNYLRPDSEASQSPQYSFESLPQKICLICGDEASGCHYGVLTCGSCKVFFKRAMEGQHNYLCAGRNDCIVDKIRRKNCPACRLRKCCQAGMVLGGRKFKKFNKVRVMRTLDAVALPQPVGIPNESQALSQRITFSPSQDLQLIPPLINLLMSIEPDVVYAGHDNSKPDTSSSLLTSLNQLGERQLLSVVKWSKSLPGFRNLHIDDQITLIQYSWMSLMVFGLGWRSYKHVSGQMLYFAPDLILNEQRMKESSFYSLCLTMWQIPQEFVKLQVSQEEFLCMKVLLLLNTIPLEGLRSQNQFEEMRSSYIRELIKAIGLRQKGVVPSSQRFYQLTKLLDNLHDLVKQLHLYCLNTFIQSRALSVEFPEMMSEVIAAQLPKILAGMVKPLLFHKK

[1] = target: T2, Polyunsaturated fatty acid lipoxygenase ALOX15 (Oryctolagus cuniculus, UniProt P12530); experiment: biochemical; type: tissue-based, Reticulocytes; conditions: reticulocytes;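 further: inhibition of 15-lipoxygenase enzyme activity measured with linoleic acid as the substrate; in other assays of this panel Not Active means under 50% inhibition at 10 µM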
T2 sequence (P12530 whole entry): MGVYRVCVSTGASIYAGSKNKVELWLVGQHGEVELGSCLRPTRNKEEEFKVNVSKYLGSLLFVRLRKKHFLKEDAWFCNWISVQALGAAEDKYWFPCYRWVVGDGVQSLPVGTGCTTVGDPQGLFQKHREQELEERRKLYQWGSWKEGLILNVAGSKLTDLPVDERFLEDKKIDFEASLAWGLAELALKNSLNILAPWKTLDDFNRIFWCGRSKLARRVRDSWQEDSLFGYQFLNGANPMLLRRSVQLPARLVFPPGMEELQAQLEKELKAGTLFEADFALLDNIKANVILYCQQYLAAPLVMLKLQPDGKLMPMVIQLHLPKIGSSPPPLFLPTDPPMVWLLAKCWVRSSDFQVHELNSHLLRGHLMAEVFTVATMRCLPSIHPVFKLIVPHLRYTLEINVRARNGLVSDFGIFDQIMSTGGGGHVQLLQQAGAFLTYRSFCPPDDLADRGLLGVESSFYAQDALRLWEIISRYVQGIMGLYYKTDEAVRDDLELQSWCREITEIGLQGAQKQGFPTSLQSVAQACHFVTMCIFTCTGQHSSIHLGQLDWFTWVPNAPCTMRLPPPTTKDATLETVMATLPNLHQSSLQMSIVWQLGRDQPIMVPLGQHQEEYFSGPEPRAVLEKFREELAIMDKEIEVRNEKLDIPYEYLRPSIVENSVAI

[2] = target: Delta-type opioid receptor (Homo sapiens, UniProt P41143); type: cell membranes, HEK293, Membrane; conditions: hek293; further: in other assays of this panel Not Active means under 50% inhibition at 10 µM
[3] = target: T3, 3-hydroxy-3-methylglutaryl-coenzyme A reductase (Homo sapiens, UniProt P04035); set-up: species or system Escherichia coli;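 further: enzyme inhibition assay of HMG-CoA reductase using radiolabeled [14C]HMG-CoA as substrate; in other assays of this panel Not Active means under 50% inhibition at 10 µM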
T3 sequence (P04035 whole entry): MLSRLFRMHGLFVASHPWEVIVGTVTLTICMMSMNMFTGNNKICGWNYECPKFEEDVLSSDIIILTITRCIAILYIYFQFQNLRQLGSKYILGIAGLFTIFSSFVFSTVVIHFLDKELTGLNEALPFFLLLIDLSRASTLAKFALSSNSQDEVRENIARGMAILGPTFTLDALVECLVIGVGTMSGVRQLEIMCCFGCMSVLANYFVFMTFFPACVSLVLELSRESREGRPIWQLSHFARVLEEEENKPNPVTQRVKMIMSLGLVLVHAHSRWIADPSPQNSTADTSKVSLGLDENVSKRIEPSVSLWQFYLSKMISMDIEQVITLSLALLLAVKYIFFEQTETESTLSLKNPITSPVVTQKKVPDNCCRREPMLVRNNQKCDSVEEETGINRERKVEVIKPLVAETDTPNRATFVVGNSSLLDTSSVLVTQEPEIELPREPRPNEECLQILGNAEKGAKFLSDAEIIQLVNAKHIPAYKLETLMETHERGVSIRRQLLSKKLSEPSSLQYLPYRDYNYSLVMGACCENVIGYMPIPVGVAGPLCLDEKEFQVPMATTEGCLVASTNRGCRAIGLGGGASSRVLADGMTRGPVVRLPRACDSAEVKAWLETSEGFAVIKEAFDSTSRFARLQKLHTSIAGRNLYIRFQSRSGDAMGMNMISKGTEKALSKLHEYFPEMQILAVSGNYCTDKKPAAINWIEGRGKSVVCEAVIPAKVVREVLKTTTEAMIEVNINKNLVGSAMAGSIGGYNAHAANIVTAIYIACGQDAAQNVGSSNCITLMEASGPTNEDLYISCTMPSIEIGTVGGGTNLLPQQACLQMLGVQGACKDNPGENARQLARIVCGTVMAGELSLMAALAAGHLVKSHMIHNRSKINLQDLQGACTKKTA

Histamine H2 receptor = Histamine H2 receptor (Homo sapiens, UniProt P25021); type: cell membranes, CHO-K1, Membrane; further: in other assays of this panel Not Active means under 50% inhibition at 10 µM
[4] = target: cGMP-specific 3',5'-cyclic phosphodiesterase (Homo sapiens, UniProt O76074); experiment: DRUGMATRIX: Phosphodiesterase PDE5 enzyme inhibition (substrate: [3H]cGMP + cGMP); type: tissue-based, Platelet; conditions: platelet; Not Active = under 50% inhibition at 10 µM
[5] = target: T4, Muscarinic acetylcholine receptor M2 (Homo sapiens, UniProt P08172); type: cell membranes, CHO-K1, Membrane; further: in other assays of this panel Not Active means under 50% inhibition at 10 µM
T4 sequence (P08172 whole entry): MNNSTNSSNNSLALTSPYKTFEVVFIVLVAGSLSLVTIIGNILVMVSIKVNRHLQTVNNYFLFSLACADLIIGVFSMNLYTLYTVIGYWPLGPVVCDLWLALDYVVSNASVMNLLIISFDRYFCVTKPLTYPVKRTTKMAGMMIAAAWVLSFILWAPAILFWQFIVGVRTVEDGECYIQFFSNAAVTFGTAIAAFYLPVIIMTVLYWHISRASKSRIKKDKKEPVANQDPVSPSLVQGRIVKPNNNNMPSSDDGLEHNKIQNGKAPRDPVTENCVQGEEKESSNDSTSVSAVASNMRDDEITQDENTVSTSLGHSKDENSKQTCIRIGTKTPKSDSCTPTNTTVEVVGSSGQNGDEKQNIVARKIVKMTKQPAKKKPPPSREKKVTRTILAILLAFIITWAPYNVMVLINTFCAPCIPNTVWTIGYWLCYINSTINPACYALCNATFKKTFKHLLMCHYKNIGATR

Histamine H2 receptor, sequence (P25021 whole entry): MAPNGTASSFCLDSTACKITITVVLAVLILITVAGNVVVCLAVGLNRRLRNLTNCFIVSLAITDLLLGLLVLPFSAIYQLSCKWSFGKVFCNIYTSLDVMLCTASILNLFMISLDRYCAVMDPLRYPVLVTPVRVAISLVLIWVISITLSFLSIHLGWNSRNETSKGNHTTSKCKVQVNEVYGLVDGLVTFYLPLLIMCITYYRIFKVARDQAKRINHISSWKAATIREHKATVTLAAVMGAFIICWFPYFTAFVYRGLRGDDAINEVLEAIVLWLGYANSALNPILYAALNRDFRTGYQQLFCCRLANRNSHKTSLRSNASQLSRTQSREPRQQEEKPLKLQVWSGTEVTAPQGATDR
Delta-type opioid receptor, sequence (P41143 whole entry): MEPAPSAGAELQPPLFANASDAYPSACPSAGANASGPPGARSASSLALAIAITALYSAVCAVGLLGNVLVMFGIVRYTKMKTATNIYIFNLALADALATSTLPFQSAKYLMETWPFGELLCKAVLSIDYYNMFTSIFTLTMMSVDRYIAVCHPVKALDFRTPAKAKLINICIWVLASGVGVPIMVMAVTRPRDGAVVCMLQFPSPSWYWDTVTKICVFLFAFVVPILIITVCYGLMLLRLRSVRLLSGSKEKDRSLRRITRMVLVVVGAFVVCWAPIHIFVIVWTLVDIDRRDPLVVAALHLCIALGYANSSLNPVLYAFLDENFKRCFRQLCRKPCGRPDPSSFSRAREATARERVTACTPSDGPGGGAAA

| Structure (SMILES) | IC50 (Progesterone receptor) | IC50 [1] | IC50 [2] | IC50 ([3]; read-out: IC50) | IC50 (Histamine H2 receptor; cho-k1) | IC50 [4] | IC50 ([5]; cho-k1) | IC50 [3] | IC50 (Histamine H2 receptor; read-out: IC50) | Ki (Histamine H2 receptor; read-out: Ki) | IC50 ([5]; read-out: IC50) | Ki ([5]; read-out: Ki) |
| --- | --- | --- | --- | --- | --- | --- | --- | --- | --- | --- | --- | --- |
| CC(C)n1c(/C=C/C(O)CC(O)CC(=O)O)c(-c2ccc(F)cc2)c2ccccc21 (stereo unspecified) [FLUVASTATIN] | Not Active | Not Active | Not Active | 0.353 nM | Not Active | Not Active | Not Active |  |  |  |  |  |
| O=C1OCCN1/N=C/c1ccc([N+](=O)[O-])o1 [FURAZOLIDONE] | Not Active | Not Active | Not Active |  | Not Active | Not Active | Not Active | Not Active |  |  |  |  |
| NCC1(CC(=O)O)CCCCC1 [GABAPENTIN] | Not Active | Not Active | Not Active |  | Not Active | Not Active | Not Active | Not Active |  |  |  |  |
| Nc1nc2c(ncn2COC(CO)CO)c(=O)[nH]1 [GANCICLOVIR] | Not Active | Not Active | Not Active |  | Not Active | Not Active | Not Active | Not Active |  |  |  |  |
| COc1c(N2CCNC(C)C2)c(F)cc2c(=O)c(C(=O)O)cn(C3CC3)c12 (stereo unspecified) [GATIFLOXACIN] | Not Active | Not Active | Not Active |  | Not Active | Not Active | Not Active | Not Active |  |  |  |  |
| NCC(=O)O [GLYCINE] | Not Active | Not Active | Not Active |  | Not Active | Not Active | Not Active | Not Active |  |  |  |  |
| CC1(C)[C@@H](O[C@H]2O[C@H](C(=O)O)[C@@H](O)[C@H](O)[C@H]2O[C@@H]2O[C@H](C(=O)O)[C@@H](O)[C@H](O)[C@H]2O)CC[C@]2(C)[C@H]3C(=O)C=C4[C@@H]5C[C@@](C)(C(=O)O)CC[C@]5(C)CC[C@@]4(C)[C@]3(C)CC[C@@H]12 [GLYCYRRHIZIN] | Not Active | Not Active | Not Active |  | Not Active | Not Active | Not Active | Not Active |  |  |  |  |
| COC1=CC(=O)C[C@@H](C)[C@]12Oc1c(Cl)c(OC)cc(OC)c1C2=O [GRISEOFULVIN] | Not Active | Not Active | Not Active |  | Not Active | Not Active | Not Active | Not Active |  |  |  |  |
| C/C=C1\[C@H]2C=C(C)C[C@]1(N)c1ccc(=O)[nH]c1C2 [HUPERZINE A] | Not Active | Not Active | Not Active |  | Not Active | Not Active | Not Active | Not Active |  |  |  |  |
| NS(=O)(=O)c1cc2c(cc1Cl)NCNS2(=O)=O [HYDROCHLOROTHIAZIDE] | Not Active | Not Active | Not Active |  | Not Active | Not Active | Not Active | Not Active |  |  |  |  |
| O=P1(NCCCl)OCCCN1CCCl (stereo unspecified) [IFOSFAMIDE] | Not Active | Not Active | Not Active |  | Not Active | Not Active | Not Active | Not Active |  |  |  |  |
| CN1CCC[C@H]1c1cccnc1 [NICOTINE] | Not Active | Not Active | Not Active |  | Not Active | Not Active | Not Active | Not Active |  |  |  |  |
| O=C1CN=C(c2ccccc2)c2cc([N+](=O)[O-])ccc2N1 [NITRAZEPAM] | Not Active | Not Active | Not Active |  | Not Active | Not Active | Not Active | Not Active |  |  |  |  |
| CNCCC=C1c2ccccc2CCc2ccccc21 [NORTRIPTYLINE] | Not Active | Not Active | Not Active |  |  | Not Active |  | Not Active | 2330 nM | 2300 nM | 347 nM | 123 nM |
| CC1COc2c(N3CCN(C)CC3)c(F)cc3c(=O)c(C(=O)O)cn1c23 (stereo unspecified) [OFLOXACIN] | Not Active | Not Active | Not Active |  | Not Active | Not Active | Not Active | Not Active |  |  |  |  |
| Oc1cccc2cccnc12 [OXYQUINOLINE] | Not Active | Not Active | Not Active |  | Not Active | Not Active | Not Active | Not Active |  |  |  |  |
| CN(C)[C@@H]1C(O)=C(C(N)=O)C(=O)[C@@]2(O)C(O)=C3C(=O)c4c(O)cccc4[C@@](C)(O)[C@H]3[C@H](O)[C@@H]12 [OXYTETRACYCLINE] | Not Active | Not Active | Not Active |  | Not Active | Not Active | Not Active | Not Active |  |  |  |  |
